From ChEMBL document CHEMBL5532646, “Discovery of 4-(N-dithiobenzyl piperazine)-1,8-naphthalimide as a potent multi-target antitumor agent with good efficacy, limited toxicity, and low resistance” (Eur J Med Chem, 2024)
pIC50: −log10 of the molar value. The source made the active and inactive calls. No cut-off for these calls is given here.

How the values were obtained:
T-24 [1] = experiment: Antiproliferative activity against human T24 cells incubated for 48 hrs by MTT assay; assay type: functional, cell-based; settings: T-24, 48 h
T-24 [2] = experiment: Induction of autophagy in human T24 cells at 5 uM incubated for 24 hrs by KEGG analysis; assay type: functional, cell-based
T-24 [3] = experiment: Induction of ferroptosis in human T24 cells assessed as ruptured mitochondria at 5 uM incubated for 24 hrs by TEM analysis; assay type: functional, cell-based
T-24 [4] = experiment: Induction of cell cycle arrest at G2/M phase in human T24 cells at 5 uM incubated for 24 hrs by flow cytometry (reference value: 12.30 %); assay type: functional
T-24 [5] = experiment: Induction of cell cycle arrest at S phase in human T24 cells at 8 uM incubated for 24 hrs by flow cytometry (reference value: 12.39 %); assay type: functional
T-24 [6] = experiment: Induction of apoptosis in human T24 cells assessed as increase in Bax level at 2 to 8 uM incubated for 24 hrs by Western blot analysis; assay type: functional, cell-based; settings: dose 2-8 µM
T-24 [7] = experiment: Induction of cell cycle arrest at G0/G1 phase in human T24 cells at 2 uM incubated for 24 hrs by flow cytometry (reference value: 75.31 %); assay type: functional
T-24 [8] = experiment: Induction of cell cycle arrest at G0/G1 phase in human T24 cells at 5 uM incubated for 24 hrs by flow cytometry (reference value: 75.31 %); assay type: functional
HUVEC = experiment: Antiproliferative activity against HUVEC cells incubated for 48 hrs by MTT assay; assay type: functional, cell-based; settings: Homo sapiens
[9] = Toxicity in nude mouse model xenografted with human T24 cells assessed as pathological change in spleen at 15 mg/kg, ip administered once every two days for 21 days; assay type: organism-based, T-24; settings: in vivo, 504 h, time 21 day
T-24 [10] = experiment: Induction of cell cycle arrest at S phase in human T24 cells at 2 uM incubated for 24 hrs by flow cytometry (reference value: 12.39 %); assay type: functional
T-24 [11] = experiment: Induction of ferroptosis in human T24 cells assessed as increase in lipid peroxide level at 5 uM incubated for 24 hrs by fluorescence based analysis; assay type: functional, cell-based
T-24 [12] = experiment: Induction of cell cycle arrest in human T24 cells assessed as increase in p21 level at 2 to 8 uM by Western blot analysis; assay type: functional, cell-based; settings: dose 2-8 µM
T-24 [13] = experiment: Induction of autophagy in human T24 cells assessed as appearance of autophagic vesicles at 5 uM incubated for 48 hrs by TEM analysis; assay type: functional, cell-based
T-24 [14] = experiment: Induction of apoptosis in human T24 cells assessed as increase in Bad level at 2 to 8 uM incubated for 24 hrs by Western blot analysis; assay type: functional, cell-based; settings: dose 2-8 µM
T-24 [15] = experiment: Upregulation of ERK1/2 phosphorylation in human T24 cells incubated for 24 hrs by Western blot analysis; assay type: functional, cell-based; settings: dose 2-8 µM
T-24 [16] = experiment: Anti-migratory activity against human T24 cells at 5 uM incubated upto 48 hrs in presence of FR180204 by wound healing assay; assay type: functional, cell-based
T-24 [17] = experiment: Anti-migratory activity against human T24 cells at 1 to 10 uM incubated upto 48 hrs by wound healing assay; assay type: functional, cell-based; settings: dose 1-10 µM
SK-OV-3 = experiment: Antiproliferative activity against human SK-OV-3 cells incubated for 48 hrs by MTT assay; assay type: functional, cell-based; settings: SK-OV-3, 48 h
[18] = Toxicity in nude mouse model xenografted with human HepG2 cells assessed as pathological change in liver at 15 mg/kg, ip administered once every two days for 21 days; assay type: organism-based; settings: in vivo, 504 h, time 21 day
T-24 [19] = experiment: Induction of apoptosis in human T24 cells assessed as increase in Bak level at 2 to 8 uM incubated for 24 hrs by Western blot analysis; assay type: functional, cell-based; settings: dose 2-8 µM
[20] = Toxicity in nude mouse model xenografted with human T24 cells assessed as pathological change in lung at 15 mg/kg, ip administered once every two days for 21 days; assay type: organism-based, T-24; settings: in vivo, 504 h, time 21 day
T-24 [21] = experiment: Induction of apoptosis in human T24 cells at 5 uM incubated for 24 hrs by KEGG analysis; assay type: functional, cell-based

- pIC50 (SK-OV-3): 5.84
Structure (SMILES): CN(C)CCN1C(=O)c2cccc3c(N4CCN(C(=S)SCc5ccccc5)CC4)ccc(c23)C1=O
- pIC50 (T-24 [1]): 5.52
- Activity (T-24 [2]): Active
- Activity (T-24 [3]): Active
- Activity (T-24 [4]): 18.36%
- Activity (T-24 [5]): 13.21%
- Activity (T-24 [6]): Active
- Activity (T-24 [7]): 42.37%
- Activity (T-24 [8]): 51.06%
- pIC50 (HUVEC): 4.78
- Activity [9]: Non-Toxic
- Activity (T-24 [10]): 36.93%
- Activity (T-24 [11]): Active
- Activity (T-24 [12]): Active
- Activity (T-24 [13]): Active
- Activity (T-24 [14]): Active
- Activity (T-24 [15]): Dose-Dependent Effect
- Activity (T-24 [16]): inactive
- Activity (T-24 [17]): Active
- Activity [18]: Non-Toxic
- Activity (T-24 [19]): Active
- Activity [20]: Non-Toxic
- Activity (T-24 [21]): Active
